In patent US20240352010A1, “SUBSTITUTED 1,2,4-THIADIAZOLYL NICOTINAMIDES, SALTS OR N-OXIDES THEREOF AND THEIR USE AS HERBICIDALLY ACTIVE SUBSTANCES” (BayerAktiengesellschaft, priority 2021, published 2024):

Tested on: Setaria viridis (SETVI)
Experiment: Herbicidal post-emergence action, SETVI
Format: in vivo
Source text: Seeds of mono- and dicotyledonous weed plants were sown in plastic pots (double sowings with one species of mono- and one species of dicotyledonous weed plants per pot), in sandy loam, covered with soil and grown under controlled growth conditions. 2 to 3 weeks after sowing, the test plants were sprayed in the single-leaf stage. The compounds according to the invention, formulated in the form of wettable powders (WP) or as emulsifiable concentrates (EC), were sprayed onto the green plant parts as an aqueous suspension or as an emulsion, with the addition of 0.5% of an additive, at an application rate of 600 litres of water per hectare (converted). The test plants were placed in the greenhouse for ca. 3 weeks under optimum growth conditions, and then the effect of the preparations is assessed visually in comparison with untreated controls (herbicidal effect in percent (%): 100% effect=plants have died, 0% effect=as control plants). […]

For O=C(Nc1ncns1)c1c(C2CC2)ccnc1F [Example I-005], the “herbicidal effect in percent, SETVI” value (320 g/ha, assessed visually after ca. 3 weeks vs untreated controls (Table D8)) was 90% and the “herbicidal effect in percent, SETVI” value (1280 g/ha, assessed visually after ca. 3 weeks vs untreated controls (Table B7)) was 100%.
